Measured values published in patent US20040086983A1, “Method for producing a heterocyclic compound and an aromatic carboxylic acid having one or more hydroxyl groups, and modified aromatic ring dioxygenase” (priority 2000, published 2004).

Key:
[1] = test system: biphenyl dioxygenase derived from the strain Pseudomonas pseudoalcaligenes KF707 (bphA1A2A3A4) expressed in E. coli (pKF6622); type: cell-based; settings: 5 mg substrate in 70 ml M9 medium; for conversion rate: 28° C., 2 to 3 days, ratio of HPLC peak areas (max plot 230 to 350 nm); for conversion products observed: HPLC analysis
Experimental: (§1) To start the conversion reaction, first, the necessary E. coli transformant cells were removed from the abovementioned glycerol stock culture with a platinum loop, suspended in 4 ml of LB medium containing 150 μg/ml ampicillin (Ap) and cultured at 28° C. for 7 to 8 hours at 175 rpm (pre-culture). […] The cells were recovered by centrifugation at 8,000 rpm for 5 minutes and suspended in 70 ml of M9 medium (supplemented with 150 μg/ml Ap, 0.4% (w/v) glucose, and 10 μg/ml thiamine) containing isopropyl-1-thio-β-D-galactopyranoside (IPTG) at a final concentration of 1 mM and 5 mg of a substrate, and the cultivation was further carried out at 28° C. for 2 to 3 days at 175 rpm. The substrate used was prepared by dissolving it in a solvent, such as ethanol, generally at a concentration of 10 mg/ml and added in an amount of 0.5 ml. On day 2 or 3 of the cultivation, the lipid was extracted by adding 70 ml of methanol and stirring for 30 minutes, and the supernatant was collected by centrifugation at 8,000 rpm for 5 minutes to obtain a crude lipid extract.
(§2) The HPLC analysis was carried out using a Puresil C18 column (4.6 mm×250 mm, Waters) at a rate of 1 ml/min. […] Conditions for development with solvents were as follows:
(§3) Solution A: water/methanol (50/50)
(§4) Solution B: methanol/2-propanol (60/40)
(§5) 0 to 5 min (solution A), 5 to 20 min (solution A)→(solution B) convex gradient (No. 3, Waters), 20 min−(solution B)
(§6) The conversion rate was expressed by a ratio of peak areas monitored at the wave length where the maximum absorbance was observed within the range from 230 to 350 nm (max plot).

[2] = test system: modified biphenyl dioxygenase (modified bphA1::bphA2A3A4) expressed in E. coli (pKF2072); type: cell-based, Pseudomonas pseudoalcaligenes KF707; settings: 5 mg substrate in 70 ml M9 medium, 28° C., 2 to 3 days, ratio of HPLC peak areas (max plot 230 to 350 nm)
Experimental: as §1, §2, §3, §4, §5, §6

[3] = test system: modified bphA1::bphA2A3A4 expressed in Streptomyces lividans TK21 (pIJ-2072); test: Conversion experiment using recombinant actinomycetes (pIJ-2072), HPLC analysis; type: cell-based, Pseudomonas pseudoalcaligenes KF707; settings: substrate 0.1 mg/ml, cells 10 mg/ml, 30° C., 2 days
Experimental: Plasmid pKF2072 was double-digested with SacI/SmaI, after which a 4.06 kb fragment containing the modified bphA1::bphA2A3A4 was excised. Then, vector pIJ6021 for actinomycetes (see E. Takano, J. White, C. J. Thompson, M. J. Bibb, Gene, 166, 133-137, 1995) was double-digested with NdeI-HindIII, and then the abovementioned 4.06 kb SacI-HindIII fragment and a synthesized DNA 5′-[…]-3′ were added. After annealing, treatment with a Klenow fragment enzyme was followed by a ligation reaction. E. coli JM109 strain was transformed, after which the objective plasmid pIJ-2072 was obtained. The pIJ-2072 was designed so that the modified bphA1 gene is located immediately downstream of a powerful actinomycetes promoter PtipA and its ribosome binding site, being followed by the bphA2A3A4 gene. Namely, the 5′ binding site is […]. The underlined segment is the ribosome binding site, and the modified bphA1 gene starts at ATG from nucleotide 18 to nucleotide 20. This plasmid pIJ-2072 was used to transform actinomycetes Streptomyces lividans TK21 (see D. A. Hopwood, M. J. Bibb, K. F. Chater et al., Genetic Manipulation of Streptomyces: A laboratory Manual, The John Innes Institute, Norwich, 1985). […]

SMILES: Oc1ccccc1-c1nc2ccccc2o1 [2-(2-hydroxyphenyl)-benzoxazole]
- conversion rate [1]: 25%
- conversion rate [2]: 39%

SMILES: c1ccc(-c2ccncn2)cc1 [4-phenylpyrimidine]
- conversion products observed [1]: hardly observed
- conversion rate [2]: 100%

SMILES: CCCCc1cc2ccccc2o1 [2-n-butylbenzofuran]
- conversion rate [1]: 90%
- conversion rate [2]: 100%

SMILES: c1ccc(Cc2ccccn2)cc1 [2-benzylpyridine]
- conversion rate [1]: 11%
- conversion rate [2]: 57%

SMILES: Cc1cccnc1-c1ccccc1 [3-methyl-2-phenylpyridine]
- conversion products observed [1]: hardly observed
- conversion rate [2]: 16%

SMILES: Cc1ccc(-c2ccccn2)cc1 [2-(p-tolyl)pyridine]
- conversion rate [1]: 61%
- conversion rate [2]: 96%

SMILES: c1ccc(-c2nc3ccccc3o2)cc1 [2-phenylbenzoxazole]
- conversion rate [1]: 45%
- conversion rate [2]: 100%

SMILES: CCCCCCc1ccsc1 [3-n-hexylthiophene]
- conversion rate [1]: 99%
- conversion rate [2]: 100%

SMILES: c1ccc(-c2nc3ccccc3s2)cc1 [2-phenylbenzothiazole]
- conversion rate [1]: 36%
- conversion rate [2]: 81%

SMILES: c1ccc(Cn2ccnc2)cc1 [1-benzylimidazole]
- conversion rate [1]: 43%
- conversion rate [2]: 97%

SMILES: c1ccc(-c2ccc3ccccc3n2)cc1 [2-phenylquinoline]
- conversion rate [1]: 53%
- conversion rate [2]: 89%
- converted into its diol derivative, yield [3]: ~100%

SMILES: c1ccc(-c2cc3ccccc3[nH]2)cc1 [2-phenylindole]
- conversion rate [1]: 23%
- conversion rate [2]: 71%

SMILES: c1ccc(Cc2cnsc2)cc1 [4-benzylisothiazole]
- conversion rate [1]: 27%
- conversion rate [2]: 65%

SMILES: Cc1ccn(-c2ccccc2)n1 [3-methyl-1-phenylpyrazole]
- conversion rate [1]: 63%
- conversion rate [2]: 100%

SMILES: c1ccc(-n2cccn2)cc1 [1-phenylpyrazole]
- conversion products observed [1]: hardly observed
- conversion rate [2]: 47%

SMILES: c1ccc(-n2cccc2)cc1 [1-phenylpyrrole]
- conversion rate [1]: 100%
- conversion rate [2]: 100%

SMILES: O=C1CC(c2ccccc2)c2ccccc21 (centres unmarked) [3-phenyl-1-indanone]
- conversion rate [1]: 93%
- conversion rate [2]: 97%
